The values that follow come from patent publication US10407399B2, “Ion-activated photolabile compounds” (HOWARD HUGHES MEDICAL INSTITUTE, priority 2015, dated 2019).

Several values for one entry are separate records, joined by “and”; a condition that tells them apart may be missing. Equal entries are not always repeated. A value given as a limit tells only on which side of the number the result lay.

Data set [1] relates to cultured hippocampal neurons. The data set is described as follows: Live cell photoactivation imaging of neurons with or without ionomycin. Format: cell-based, rat. The conditions noted are these: for rate k of cellular fluorescence increase versus irradiation time: 10 μM, 1 h loading, 365 nm. As for the experimental part:
The utility of the embodied system was then observed in a cellular context. The hexa-acetoxymethyl (AM) ester 403 of compound 402 was prepared (FIG. 8). This membrane-permeant compound enabled loading of cultured hippocampal neurons with the light-gated chemodosimeter. The overlap of the photouncaging wavelength (λ=351 nm) and the excitation spectra (λmax=402 nm) of the coumarin allowed simultaneous imaging and activation with a single light source centered at 365 nm.
(§1) HEK293T/17 cells (ATCC) were cultured according to instructions in poly-D-lysine-coated 24-well CellBind plates (Corning) in Dulbecco's modified eagle medium (DMEM; Invitrogen) supplemented with 10% v/v fetal bovine serum (FBS; Invitrogen) and maintained at 37° C. in a humidified 5% CO2 v/v environment. Primary rat hippocampal neurons were prepared and cultured as described previously. Imaging buffer for HEK293T/17 cells consisted of Dulbecco's phosphate buffered saline (DPBS; Invitrogen). Imaging buffer for cultured neurons consisted of: 145 mM NaCl, 2.5 KCl, 10 mM glucose, 10 mM HEPES pH 7.4, 2 mM CaCl2, and 1 mM MgCl2. To load cells with the dosimeter, a stock solution of 403 (1 mM) in DMSO containing 10% w/v Pluronic F-127 (Sigma) was added to a final concentration of 10 μM in imaging buffer. Cells were incubated in this solution for 1 h at 37° C., after which the cells were washed with imaging buffer (3×) and imaged. The final imaging buffer wash for cultured neurons additionally contained pharmacological agents (10 μM CNQX, 10 μM (R)-CPP, 10 μM gabazine, and 1 mM (S)-MCPG; Tocris) to block spontaneous cellular activity.
(§2) Cells were imaged on a Olympus IX-81 microscope using a 10× or 20× objective and a DAPI filter set (Semrock DAPI-5060C-000; excitation: 352-402 nm, dichroic cutoff: 409 nm, emission: 417-477 nm) filtering a mercury arc lamp. Excitation/photoactivation light was attenuated using a neutral density filter giving a light intensity of 60 mW/cm^2. To raise intracellular calcium ion levels (FIGS. 19B, 21B, and 22B), cells were incubated with 10 μM ionomycin (Sigma) and 4 mM CaCl2 for 2 min prior to imaging.

In the next data set the test system is cultured neurons. In words: Light-gated integration of Ca^2+ evoked by electrical stimulation. As to conditions: for rate k of increase in cellular fluorescence versus irradiation time: n=20. Format: cell-based, rat. The protocol: The present compound was then utilized to measure calcium ion changes in neurons evoked by electrical activity. Low-affinity reversible Ca^2+ indicators are advantageous for use in biological systems as their low buffering capacity preserves native calcium ion dynamics. Nevertheless, poor signal-to-background ratios of such indicators may restricts their utility to subcellular compartments undergoing extremely high calcium flux (e.g., dendritic spines). […] Cells were incubated with AM ester 403 and subjected to the photoactivation imaging protocol. In one population of cells neuronal action potential firing was elicited by field stimulation at 80 Hz.
as §1, §2
Cultured neurons loaded with compound 403 were stimulated electrically to induce action potential firing at 80 Hz for one second prior to and during illumination with excitation/photoactivation light. A Grass S48 Stimulator (Grass Technologies) was used with a custom-built platinum wire field stimulation electrode.

Data set [2] is described as follows: Determination of Kd from fluorescence after photoactivation as a function of [Ca^2+]. Type of data set: binding. The conditions noted are these: methoxy replaced with pyrrolidine, versus 402; readout not stated. The protocol:
(§3) All measurements were taken at ambient temperature (23±2° C.). […] Spectroscopy was performed using 1-cm path length quartz or polymethacrylate cuvettes (Starna or Fisher). Absorption measurements were recorded on a Cary Model 100 spectrometer (Varian). Fluorescence measurements spectra were recorded on a Cary Eclipse fluorometer (Varian). Buffer pH was adjusted with KOH. Curve fitting was accomplished with GraphPad Prism 5.
For [Ca^2+]<40 μM, the free calcium concentration was controlled by a commercial EGTA buffer system (Invitrogen). […] For [Ca^2+]>40 μM, buffers were prepared with 1 mM EGTA and excess CaCl2 in 30 mM MOPS pH 7.2 and 100 mM KCl. Different buffer solutions containing 100 nM of 402 or S13 were irradiated in clean glass vials for 1 min using the photoreactor setup described above. The samples were then transferred to a black, clear bottom, 96-well polystyrene microplate with a nonbinding surface coating (Corning). Fluorescence was read from the bottom on a FlexStation3 fluorescence microplate reader (Molecular Devices; for coumarin 402: λex/λem=402/447 nm; for Tokyo Green compound S13: λex/λem=496/520 nm). The plot of fluorescence vs. [Ca^2+] was fit to one site-specific binding curve to determine the Kd. Found: 28.3±0.6 μM (±SE) for 402 and 28.0±0.8. μM for S13.

A short description of data set [3]: Determination of photochemical quantum yield (365 nm irradiation, fluorescence of released fluorophore). As to conditions: for photochemical quantum yield (Φ) in the presence of Ca^2+: 10 mM CaCl2, 30 mM MOPS pH 7.2, 100 mM KCl; for photochemical quantum yield (Φ) in the presence of Ca^2+ / photochemical quantum yield (Φ) in the absence of Ca^2+: 365 nm; for photochemical quantum yield (Φ) in the absence of Ca^2+: 10 mM EGTA, 30 mM MOPS pH 7.2, 100 mM KCl; for enhancement in photochemical quantum yield upon Ca^2+ binding: presence vs absence of Ca^2+. Type of data set: physicochemical. The protocol:
as §3
Photochemistry was performed in 1-cm path length/3.5 mL quartz cuvettes (Starna) in a Luzchem LZC 4V photoreactor equipped with 365 nm UV lamps, a carousel, and a timer. The irradiation was determined by potassium ferrioxalate actinometry.^3 A solution of 60 mM K3Fe(C2O4)3 was irradiated using the photoreactor setup. Released Fe^2+ was determined by complexometry with 1,10 phenanthroline. Using the known photochemical quantum yield of this process, we determined the photon flux (I)=[…]. Samples (10 μM, 3.5 mL) were irradiated in either zero calcium buffer (30 mM MOPS pH 7.2, 10 mM EGTA, 100 mM KCl) or calcium-containing buffer (30 mM MOPS pH 7.2, 10 mM CaCl2, 100 mM KCl) and a small aliquot (30 μL) was removed and diluted 100-fold in matching buffer. The fluorescence of these samples was then measured (coumarin 402: λex/λem=402/447 nm; Tokyo Green compound S13: λex/λem=496/520 nm). The quantum yield (Φ, mol/ein) was determined by fitting a plot of fluorescence vs. irradiation time to a one-phase association described by equation 1: Ft=Fmax−Fmax(e^−IσΦt) (1) where Fmax=maximal fluorescence, t=time (min), Ft=fluorescence at time t, I=irradiation (ein/min·cm^2), and σ=decadic extinction coefficient (cm^2/mol; 1000-fold higher than the value with units of M^−1 cm^−1 based on cuvette geometry). For compound 402 we determined Φ=4.8±0.2% (mean±SE) in the presence of 10 mM Ca^2+ and Φ=0.0079±0.0003% in the presence of 10 mM EGTA (FIG. 19B). For compound S13 we found Φ=1.63±0.05% in the presence of 10 mM Ca^2+ and Φ=0.0110±0.0004% in the presence of 10 mM EGTA (FIG. 20A).

The nature of data set [4]: Absorption spectrum in buffers containing varying [Ca^2+]. Type of data set: physicochemical.
Excerpt: The absorption spectrum of 402 was first examined in buffers containing varying [Ca^2+] (FIG. 19A). […] A small (<5%) but significant increase in absorption around 350 nm was also observed when calcium ion concentration is raised. However, the coumarin moiety dominates absorption in the UV with an extinction coefficient (e)=2.4×10^4 M^−1 cm^−1 at 350 nm. These absorbance changes indicate that chelation of calcium causes a switch from the colored quinoid form to the UV-absorbing aromatic form (FIG. 3).
as §3

On to `COc1ccc(N(CC(=O)OCOC(C)=O)CC(=O)OCOC(C)=O)c(OCCOc2cc([N+](=O)[O-])c(COc3ccc4cc(C(=O)N[C@H]5CC[C@H](N(CC(=O)OCOC(C)=O)CC(=O)OCOC(C)=O)CC5)c(=O)oc4c3)cc2N(CC(=O)OCOC(C)=O)CC(=O)OCOC(C)=O)c1` [compound 403, Bis(acetoxymethyl) 2,2′-((2-(2-(2-(bis(2-(acetoxymethoxy)-2-oxoethyl)amino)-4-(((3-(((1r,4r)-4-(bis(2-(acetoxymethoxy)-2-oxoethyl)amino)cyclohexyl)carbamoyl)-2-oxo-2H-chromen-7-yl)oxy)methyl)-5-nitrophenoxy)ethoxy)-4-methoxyphenyl)azanediyl)diacetate], for which the “increase in the accumulation of cellular fluorescence” value in data set [1] (cells pretreated with ionomycin vs control cells) is 40 fold. Also, in data set [1] (control cells without ionomycin), the “fluorescence increase on illumination of control cells” value was “did not elicit significant fluorescence increase”. Moreover, the entries for the “rate k of cellular fluorescence increase versus irradiation time” value in data set [1] (ionomycin-treated neurons) and in data set [1] (untreated neurons) were 0.240 s⁻¹ and 0.0060 s⁻¹, respectively. In addition, the “permanent increase in cellular fluorescence” value in the data set with cultured neurons (field stimulation at 80 Hz) is given as 200%. Also, the “rate increase in cellular fluorescence relative to unstimulated cells” value in the data set with cultured neurons (field stimulation at 80 Hz) turned out to be 4 fold. In addition, the “rate k of increase in cellular fluorescence versus irradiation time” value was 0.133 s⁻¹ in the data set on cultured neurons (with field stimulation at 80 Hz) and 0.0325 s⁻¹ in the data set with cultured neurons (without electrical stimulation).

Turning to `O=C(O)CN(CC(=O)O)c1ccc(N2CCCC2)cc1OCCOc1cc([N+](=O)[O-])c(COc2ccc3cc(C(=O)NC4CCC(N(CC(=O)O)CC(=O)O)CC4)c(=O)oc3c2)cc1N(CC(=O)O)CC(=O)O` (stereo not shown) [compound of FIG. 14, where R═H, 2,2′-((2-(2-(2-(Bis(carboxymethyl)amino)-4-(((3-(((1r,4r)-4-(bis(carboxymethyl)amino)cyclohexyl)carbamoyl)-2-oxo-2H-chromen-7-yl)oxy)methyl)-5-nitrophenoxy)ethoxy)-4-(pyrrolidin-1-yl)phenyl)azanediyl)diacetic acid], the “effect of the modification on calcium affinity” value in data set [2] is “did not increase”.

In the case of `COc1ccc(N(CC(=O)O)CC(=O)O)c(OCCOc2cc([N+](=O)[O-])c(COc3ccc4cc(C(=O)NC5CCC(N(CC(=O)O)CC(=O)O)CC5)c(=O)oc4c3)cc2N(CC(=O)O)CC(=O)O)c1` (stereo not shown) [compound 402, 2,2′((2-(2-(2-(Bis(carboxymethyl)amino)-4-(((3-(((1r,4r)-4-(bis(carboxymethyl)amino)cyclohexyl)carbamoyl)-2-oxo-2H-chromen-7-yl)oxy)methyl)-5-nitrophenoxy)ethoxy)-4-methoxyphenyl)azanediyl)diacetic acid], in data set [3], the “photochemical quantum yield (Φ) in the presence of Ca^2+” value was 4.8% and 4.8±0.2%; the “photochemical quantum yield (Φ) in the absence of Ca^2+” value was 0.008% and 0.0079±0.0003%; the “enhancement in photochemical quantum yield upon Ca^2+ binding” value worked out at 600 fold. For the same compound, the “Ca^2+ dependence of uncaging photochemistry” value in data set [3] (fluorescence of released coumarin vs 365 nm irradiation time, 10 mM CaCl2 or 10 mM EGTA) is recorded as “efficient photochemistry was observed only in the presence of calcium”. Also, in data set [4], the “increase in absorption around 350 nm when calcium ion concentration is raised” value is given as less than 5% and the “visible absorption at 430 nm as [Ca^2+] increases” value is on record as “dramatic decrease”. Also, the extinction coefficient in data set [4] (at 350 nm) is 24000 M⁻¹ cm⁻¹.

Regarding `COc1ccc(-c2c3ccc(=O)cc-3oc3cc(OCc4cc(N(CC(=O)O)CC(=O)O)c(OCCOc5cc(OC)ccc5N(CC(=O)O)CC(=O)O)cc4[N+](=O)[O-])ccc23)c(C)c1` [compound S13, 2,2′-((2-(2-(2-(Bis(carboxymethyl)amino)-4-(((9-(4-methoxy-2-methylphenyl)-3-oxo-3H-xanthen-6-yl)oxy)methyl)-5-nitrophenoxy)ethoxy)-4-methoxyphenyl)azanediyl)diacetic acid], in data set [3], the “photochemical quantum yield (Φ) in the presence of Ca^2+” value was 1.6% and 1.63±0.05%; the “photochemical quantum yield (Φ) in the absence of Ca^2+” value was 0.011% and 0.0110±0.0004%; the “enhancement in photochemical quantum yield upon Ca^2+ binding” value worked out at 150 fold.
